Experimental data taken from ChEMBL document CHEMBL5126523, “Recent advances in DDR (DNA damage response) inhibitors for cancer therapy” (Eur J Med Chem, 2022).
pEC50, pIC50, pKi: −log10 of the molar value. Blank lines part the entries; values can stand above or below the compound they belong to.

Assays:
[1] = Cmax in overnight fasted rat at 5 mg/kg, po via gavage measured for 0.25 to 24 hrs by LC/MS/MS analysis; assay type: ADME, organism-based; set-up: dose 5 mg/kg, time upper 24 hrs, time lower 0.25 hrs, route po; details: in vivo
[2] = AUC (0 to last) in overnight fasted rat at 5 mg/kg, po via gavage measured for 0.25 to 24 hrs by LC/MS/MS analysis; assay type: ADME, organism-based; set-up: time upper 24 hrs, dose 5 mg/kg, time lower 0.25 hrs, route po; details: in vivo
[3] = Half life in Sprague-Dawley rat at 10 mg/kg, iv by LC-MS/MS analysis; assay type: ADME, organism-based; details: in vivo
[4] = target: Serine/threonine-protein kinase Chk1 (Homo sapiens, UniProt O14757); assay: Inhibition of N-terminal GST-tagged full-length recombinant human CHK1 expressed in baculovirus infected Sf9 insect cells using FAM-P10 peptide as substrate preincubated for 10 mins followed by substrate addition measured after 60 mins by ADP-Glo assay
[5] = AUC (0 to last) in Sprague-Dawley rat at 10 mg/kg, iv by LC-MS/MS analysis; assay type: ADME, organism-based; set-up: time 0 - last, dose 10 mg/kg, route iv; details: in vivo
[6] = target: T1, Serine/threonine-protein kinase ATR (Homo sapiens, UniProt Q13535); assay: Binding affinity to ATR (unknown origin) assessed as inhibition constant
[7] = target: T1, Serine/threonine-protein kinase ATR; assay: Inhibition of ATR (unknown origin)-driven CHK1 phosphorylation
LoVo [8] = assay: Antitumor activity against human LoVo cells xenografted in BALB/c nude mouse assessed as tumor growth inhibition at 40 mg/kg,iv bid by vernier caliper method relative to control; assay type: functional; details: read-out: TGI
[9] = Oral bioavailability in BALB/c nude mouse at 1 mg/kg, iv measured for 0.08 to 24 hrs by LC-MS/MS analysis; assay type: ADME, organism-based; details: in vivo, time 0.08-24 hrs
[10] = AUC (0 to last) in BALB/c nude mouse at 1 mg/kg, iv measured for 0.08 to 24 hrs by LC-MS/MS analysis; assay type: ADME, organism-based; set-up: time 0.08-24 hrs, dose 1 mg/kg, route iv; details: in vivo
[11] = Half life in BALB/c nude mouse at 1 mg/kg, iv measured for 0.08 to 24 hrs by LC-MS/MS analysis; assay type: ADME, organism-based; details: in vivo, time 0.08-24 hrs
Wee1-like protein kinase [12] = target: T2, Wee1-like protein kinase (Homo sapiens, UniProt P30291); assay: Inhibition of WEE1 (unknown origin) using LSNLYHQGKFLQTFCGSPLYRRR polypeptide as substrate incubated for 40 mins in presence of [gamma-33P]-ATP by scintillation counting method
[13] = Half life in mouse at 0.4 mg/kg, iv; assay type: ADME, organism-based; details: in vivo
[14] = target: DNA-dependent protein kinase catalytic subunit (Homo sapiens, UniProt P78527); assay: Inhibition of DNA-PK (unknown origin)
[15] = AUC (0 to last) in mouse at 0.4 mg/kg, iv; assay type: ADME, organism-based; set-up: time 0 - last, dose 0.4 mg/kg, route iv; details: in vivo
LoVo [16] = assay: Inhibition of cell growth in human LoVo cells assessed as measuring ATP content incubated for 3 days by Cell Titer Glo assay; assay type: functional, cell-based; details: 72 h
[17] = AUC in overnight fasted Sprague-Dawley rat at 2 mg/kg, po via gavage measured for 0.25 to 24 hrs by LC/MS/MS analysis; assay type: ADME, organism-based; set-up: time 0.25-24 hrs, dose 2 mg/kg, route po; details: in vivo
[18] = Half life in overnight fasted Sprague-Dawley rat at 2 mg/kg, po via gavage measured for 0.25 to 24 hrs by LC/MS/MS analysis; assay type: ADME, organism-based; details: in vivo, time 0.25-24 hrs
ATR/ATRIP = ATR/ATRIP (Homo sapiens, UniProt Q13535); assay: Inhibition of human FLAG-tagged ATR/c-Myc-tagged ATRIP expressed in mammalian expression system using p53 as substrate incubated for 2 hrs by fluorescence based assay
[19] = Cmax in overnight fasted Sprague-Dawley rat at 2 mg/kg, po via gavage measured for 0.25 to 24 hrs by LC/MS/MS analysis; assay type: ADME, organism-based; set-up: dose 2 mg/kg, time upper 24 hrs, time lower 0.25 hrs, route po; details: in vivo
HT-29 = assay: Antitumor activity against human HT-29 cells xenografted in BALB/c mouse assessed as tumor growth inhibition relative to control; assay type: functional
[20] = target: T3, Protein cereblon/Wee1-like protein kinase (Homo sapiens, UniProt P30291+Q96SW2); assay: PROTAC activity at CRBN/recombinant WEE1 (unknown origin) assessed as induction of WEE1 degradation by FRET based Lantha Screen assay; assay type: protein assay
[21] = target: T3, Protein cereblon/Wee1-like protein kinase; assay: PROTAC activity at CRBN/WEE1 in human […] assessed as induction of WEE1 degradation treated for 5 hrs by Western blot analysis; assay type: cell-based
[22] = Tmax in ICR mouse at 10 mg/kg, po measured for 5 to 1440 mins; assay type: ADME, organism-based; details: in vivo, time 5-1440 min
[23] = Oral bioavailability in ICR mouse at 10 mg/kg measured for 5 to 1440 mins; assay type: ADME, organism-based; details: in vivo, time 5-1440 min
[24] = Cmax in ICR mouse at 3 mg/kg, iv measured for 2 to 1440 mins; assay type: ADME, organism-based; set-up: time upper 1440 min, dose 3 mg/kg, time lower 2 min, route iv; details: in vivo
[25] = Cmax in ICR mouse at 10 mg/kg, po measured for 5 to 1440 mins; assay type: ADME, organism-based; set-up: time upper 1440 min, dose 10 mg/kg, time lower 5 min, route po; details: in vivo
Wee1-like protein kinase [26] = target: T2, Wee1-like protein kinase; assay: Inhibition of N-terminal GST-tagged wild-type WEE1 (215 to 646 residues) (unknown origin) expressed in Sf21 insect cells incubated for 60 mins in presence of ATP by ELISA
[27] = AUC (0 to last) in ICR mouse at 10 mg/kg, po measured for 5 to 1440 mins; assay type: ADME, organism-based; set-up: time 5-1440 min, dose 10 mg/kg, route po; details: in vivo
[28] = AUC (0 to last) in ICR mouse at 3 mg/kg, iv measured for 2 to 1440 mins; assay type: ADME, organism-based; set-up: time 2-1440 min, dose 3 mg/kg, route iv; details: in vivo
[29] = Tmax in ICR mouse at 3 mg/kg, iv measured for 2 to 1440 mins; assay type: ADME, organism-based; details: in vivo, time 2-1440 min
[30] = Half life in ICR mouse at 3 mg/kg, iv measured for 2 to 1440 mins; assay type: ADME, organism-based; details: in vivo, time 2-1440 min
[31] = Half life in ICR mouse at 10 mg/kg, po measured for 5 to 1440 mins; assay type: ADME, organism-based; details: in vivo, time 5-1440 min
Wee1-like protein kinase [32] = target: T2, Wee1-like protein kinase; assay: Displacement of tracer 178 from N-terminal GST-fused human WEE1 (215 to 646 residues) expressed in baculovirus expression system preincubated for 5 mins followed by tracer addition measured after 60 mins by Lantha Screen EU assay
[33] = Half life in BALB/c mouse at 2 mg/kg, po by LC-MS/MS analysis; assay type: ADME, organism-based; details: in vivo
[34] = Half life in BALB/c mouse at 0.4 mg/kg, iv by LC-MS/MS analysis; assay type: ADME, organism-based; details: in vivo
[35] = Cmax in BALB/c mouse at 2 mg/kg, po by LC-MS/MS analysis; assay type: ADME, organism-based; set-up: dose 2 mg/kg, route po; details: in vivo
NCI-H1703 = assay: Antitumor activity against human NCI-H1703 cells xenografted in BALB/c mouse assessed as tumor growth inhibition at 90 mg/kg, bid measured on day 21 by vernier caliper method relative to control; assay type: functional; details: NCI-H1703, 504 h, read-out: TGI
[36] = Oral bioavailability in BALB/c mouse at 2 mg/kg by LC-MS/MS analysis; assay type: ADME, organism-based; details: in vivo
[37] = AUC (0 to last) in BALB/c mouse at 0.4 mg/kg, iv by LC-MS/MS analysis; assay type: ADME, organism-based; set-up: time 0 - last, dose 0.4 mg/kg, route iv; details: in vivo
[38] = Tmax in BALB/c mouse at 2 mg/kg, po by LC-MS/MS analysis; assay type: ADME, organism-based; details: in vivo
[39] = AUC (0 to last) in BALB/c mouse at 2 mg/kg, po by LC-MS/MS analysis; assay type: ADME, organism-based; set-up: time 0 - last, dose 2 mg/kg, route po; details: in vivo

T2 sequence (P30291 whole entry): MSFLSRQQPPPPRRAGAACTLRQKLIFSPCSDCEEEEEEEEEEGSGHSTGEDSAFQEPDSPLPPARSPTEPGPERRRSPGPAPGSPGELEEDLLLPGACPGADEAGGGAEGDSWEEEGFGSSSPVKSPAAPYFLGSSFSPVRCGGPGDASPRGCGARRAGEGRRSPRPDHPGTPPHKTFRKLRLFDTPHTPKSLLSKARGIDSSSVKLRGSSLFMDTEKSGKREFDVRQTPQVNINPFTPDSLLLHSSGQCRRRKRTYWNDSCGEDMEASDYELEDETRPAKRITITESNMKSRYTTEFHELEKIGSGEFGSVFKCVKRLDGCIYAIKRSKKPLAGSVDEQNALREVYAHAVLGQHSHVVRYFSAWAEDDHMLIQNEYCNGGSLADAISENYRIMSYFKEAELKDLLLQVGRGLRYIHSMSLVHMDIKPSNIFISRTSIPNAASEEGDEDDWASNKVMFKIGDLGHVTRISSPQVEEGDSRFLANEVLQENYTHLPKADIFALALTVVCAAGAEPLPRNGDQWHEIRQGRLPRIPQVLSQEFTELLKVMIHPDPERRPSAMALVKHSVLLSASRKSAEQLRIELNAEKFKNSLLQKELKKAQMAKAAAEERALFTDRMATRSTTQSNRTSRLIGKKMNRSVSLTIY
Sequence of Serine/threonine-protein kinase Chk1 (O14757 whole entry): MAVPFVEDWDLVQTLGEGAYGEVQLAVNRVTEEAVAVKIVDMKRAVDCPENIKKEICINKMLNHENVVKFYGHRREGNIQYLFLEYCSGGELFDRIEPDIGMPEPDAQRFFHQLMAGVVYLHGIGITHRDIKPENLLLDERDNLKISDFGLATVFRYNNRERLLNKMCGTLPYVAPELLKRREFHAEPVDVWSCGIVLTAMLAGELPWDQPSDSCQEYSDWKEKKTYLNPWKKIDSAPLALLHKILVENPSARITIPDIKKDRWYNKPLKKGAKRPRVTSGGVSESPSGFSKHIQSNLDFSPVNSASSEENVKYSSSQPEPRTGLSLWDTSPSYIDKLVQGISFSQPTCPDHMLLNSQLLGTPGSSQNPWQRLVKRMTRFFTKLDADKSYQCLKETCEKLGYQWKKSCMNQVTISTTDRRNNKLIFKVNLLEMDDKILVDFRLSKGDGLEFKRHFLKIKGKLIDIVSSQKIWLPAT
T3 sequence (P30291 whole entry): as the sequence (P30291 whole entry) above
T3 sequence (Q96SW2 whole entry): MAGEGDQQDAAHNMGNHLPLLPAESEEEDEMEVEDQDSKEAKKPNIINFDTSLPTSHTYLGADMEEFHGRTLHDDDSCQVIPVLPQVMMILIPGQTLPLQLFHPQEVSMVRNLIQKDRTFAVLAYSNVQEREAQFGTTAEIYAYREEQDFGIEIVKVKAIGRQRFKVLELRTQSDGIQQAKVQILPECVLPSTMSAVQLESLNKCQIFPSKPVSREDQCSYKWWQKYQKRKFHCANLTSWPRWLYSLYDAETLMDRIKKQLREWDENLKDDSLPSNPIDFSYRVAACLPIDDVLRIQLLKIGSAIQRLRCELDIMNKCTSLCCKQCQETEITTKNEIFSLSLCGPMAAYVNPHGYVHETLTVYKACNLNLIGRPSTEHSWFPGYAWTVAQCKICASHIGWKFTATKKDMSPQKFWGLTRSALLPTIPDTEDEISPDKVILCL
T1 sequence (Q13535 whole entry): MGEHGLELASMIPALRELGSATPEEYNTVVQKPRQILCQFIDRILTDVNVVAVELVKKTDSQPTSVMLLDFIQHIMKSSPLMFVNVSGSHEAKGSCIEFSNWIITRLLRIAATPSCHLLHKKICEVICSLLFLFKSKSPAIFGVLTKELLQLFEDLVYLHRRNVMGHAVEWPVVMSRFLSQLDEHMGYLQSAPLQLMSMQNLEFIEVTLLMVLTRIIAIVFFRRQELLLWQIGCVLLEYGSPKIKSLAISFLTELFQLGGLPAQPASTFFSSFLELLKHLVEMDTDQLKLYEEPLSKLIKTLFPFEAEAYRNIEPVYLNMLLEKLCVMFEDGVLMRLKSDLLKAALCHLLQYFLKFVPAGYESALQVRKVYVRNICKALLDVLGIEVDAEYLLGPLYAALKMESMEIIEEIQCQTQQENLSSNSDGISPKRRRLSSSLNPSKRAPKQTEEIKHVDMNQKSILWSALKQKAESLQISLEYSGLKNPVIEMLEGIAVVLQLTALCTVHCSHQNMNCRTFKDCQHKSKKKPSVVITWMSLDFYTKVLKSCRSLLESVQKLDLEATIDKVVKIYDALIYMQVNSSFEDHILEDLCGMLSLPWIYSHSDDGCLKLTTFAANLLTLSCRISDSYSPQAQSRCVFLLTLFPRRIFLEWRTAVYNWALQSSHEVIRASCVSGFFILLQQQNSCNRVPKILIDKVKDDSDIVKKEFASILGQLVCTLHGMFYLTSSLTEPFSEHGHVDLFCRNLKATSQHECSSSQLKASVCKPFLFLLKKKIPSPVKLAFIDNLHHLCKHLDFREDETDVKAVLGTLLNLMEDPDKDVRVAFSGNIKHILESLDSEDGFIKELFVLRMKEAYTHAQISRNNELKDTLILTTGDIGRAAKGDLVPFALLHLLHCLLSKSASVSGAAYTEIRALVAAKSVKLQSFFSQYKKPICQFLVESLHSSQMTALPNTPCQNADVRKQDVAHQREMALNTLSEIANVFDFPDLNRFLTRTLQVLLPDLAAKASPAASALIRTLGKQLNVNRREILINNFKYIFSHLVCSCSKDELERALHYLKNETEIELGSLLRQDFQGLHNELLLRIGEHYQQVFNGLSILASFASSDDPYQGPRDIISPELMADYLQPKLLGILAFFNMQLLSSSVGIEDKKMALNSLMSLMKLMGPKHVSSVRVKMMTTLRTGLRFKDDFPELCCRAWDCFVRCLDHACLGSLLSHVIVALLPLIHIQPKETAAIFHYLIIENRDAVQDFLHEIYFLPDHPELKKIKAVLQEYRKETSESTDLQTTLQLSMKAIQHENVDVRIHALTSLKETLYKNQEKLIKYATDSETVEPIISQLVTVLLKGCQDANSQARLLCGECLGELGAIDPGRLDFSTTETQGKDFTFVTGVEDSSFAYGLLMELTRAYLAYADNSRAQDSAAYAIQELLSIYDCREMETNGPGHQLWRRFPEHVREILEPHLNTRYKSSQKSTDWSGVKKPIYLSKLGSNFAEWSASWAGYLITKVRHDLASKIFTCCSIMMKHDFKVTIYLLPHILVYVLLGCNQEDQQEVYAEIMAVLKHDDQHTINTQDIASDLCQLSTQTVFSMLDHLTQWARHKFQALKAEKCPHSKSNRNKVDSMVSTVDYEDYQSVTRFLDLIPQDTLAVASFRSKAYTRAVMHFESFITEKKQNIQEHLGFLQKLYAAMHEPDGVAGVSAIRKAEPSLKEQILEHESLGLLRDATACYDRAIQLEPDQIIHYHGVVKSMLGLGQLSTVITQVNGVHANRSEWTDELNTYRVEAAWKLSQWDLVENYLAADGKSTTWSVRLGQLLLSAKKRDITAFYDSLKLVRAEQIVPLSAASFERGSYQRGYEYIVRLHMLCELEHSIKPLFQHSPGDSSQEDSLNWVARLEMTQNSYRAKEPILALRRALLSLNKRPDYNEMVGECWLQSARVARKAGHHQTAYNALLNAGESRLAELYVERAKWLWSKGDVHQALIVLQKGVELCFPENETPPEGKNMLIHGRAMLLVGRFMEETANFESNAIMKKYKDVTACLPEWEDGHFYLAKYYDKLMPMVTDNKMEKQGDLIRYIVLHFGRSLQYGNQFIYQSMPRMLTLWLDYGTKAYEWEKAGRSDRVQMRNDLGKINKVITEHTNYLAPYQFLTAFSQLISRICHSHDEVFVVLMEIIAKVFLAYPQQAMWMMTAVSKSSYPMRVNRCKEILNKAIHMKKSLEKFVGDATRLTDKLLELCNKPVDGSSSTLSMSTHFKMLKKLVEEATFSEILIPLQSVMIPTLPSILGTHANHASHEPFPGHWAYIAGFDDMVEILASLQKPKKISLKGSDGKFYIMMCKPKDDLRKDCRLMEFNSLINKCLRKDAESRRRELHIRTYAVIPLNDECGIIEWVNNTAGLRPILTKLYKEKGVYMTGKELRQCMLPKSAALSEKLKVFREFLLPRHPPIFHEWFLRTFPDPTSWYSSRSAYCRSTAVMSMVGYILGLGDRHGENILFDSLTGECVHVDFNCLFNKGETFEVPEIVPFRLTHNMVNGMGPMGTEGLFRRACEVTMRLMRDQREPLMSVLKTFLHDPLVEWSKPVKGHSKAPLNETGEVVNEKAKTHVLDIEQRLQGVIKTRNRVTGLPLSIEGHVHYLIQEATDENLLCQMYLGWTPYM
Sequence of ATR/ATRIP (Q13535 whole entry): as above
Sequence of ATR/ATRIP (Q8WXE1 whole entry, further chain): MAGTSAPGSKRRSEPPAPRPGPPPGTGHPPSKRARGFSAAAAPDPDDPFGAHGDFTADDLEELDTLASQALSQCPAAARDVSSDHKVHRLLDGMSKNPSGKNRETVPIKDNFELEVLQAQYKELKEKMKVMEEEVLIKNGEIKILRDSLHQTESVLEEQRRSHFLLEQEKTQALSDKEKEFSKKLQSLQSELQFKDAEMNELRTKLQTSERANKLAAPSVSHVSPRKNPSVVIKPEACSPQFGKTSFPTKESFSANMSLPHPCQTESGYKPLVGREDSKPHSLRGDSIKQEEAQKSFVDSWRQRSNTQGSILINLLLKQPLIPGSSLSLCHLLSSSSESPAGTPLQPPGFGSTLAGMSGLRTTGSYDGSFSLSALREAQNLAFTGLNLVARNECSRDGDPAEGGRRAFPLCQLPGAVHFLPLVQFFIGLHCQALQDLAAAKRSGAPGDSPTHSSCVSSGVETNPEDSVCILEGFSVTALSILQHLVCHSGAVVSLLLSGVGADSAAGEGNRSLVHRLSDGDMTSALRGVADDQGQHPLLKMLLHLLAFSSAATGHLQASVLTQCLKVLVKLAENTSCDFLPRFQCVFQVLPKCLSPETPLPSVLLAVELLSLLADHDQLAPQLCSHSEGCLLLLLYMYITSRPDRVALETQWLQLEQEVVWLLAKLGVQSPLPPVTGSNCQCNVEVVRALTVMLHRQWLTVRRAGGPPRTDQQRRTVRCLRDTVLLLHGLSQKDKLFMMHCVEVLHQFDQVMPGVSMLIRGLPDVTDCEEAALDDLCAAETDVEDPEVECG

SMILES: CCOC(=O)NCCCOc1cc(F)cc(OC)c1-c1cc(Nc2cnc(C#N)cn2)n[nH]1
half-life [3]: 318 min | pIC50 [4]: > 7.30 | AUC(0-t) [5]: 2990 ng·h/mL

SMILES: Nc1nn2cc(F)cnc2c1C(=O)Nc1cncc(F)c1N1CCC(C(=O)N2CCN(C3COC3)CC2)CC1 [M4344]
pKi [6]: > 9.82 | pIC50 [7]: 8.10

SMILES: COc1ccc(C2(c3cc(-c4ncnc5cc(N6CCOCC6)ccc45)c(F)cc3Cl)CC2)nn1
half-life [13]: 35.4 min | pIC50 [14]: 7.54 | AUC(0-t) [15]: 2260 ng·h/mL

SMILES: C[C@@H]1COCCN1c1nc(-c2ccnn2C)c2c(n1)c(-c1ccn[nH]1)nn2C
pIC50 (LoVo [16]): 6.91 | AUC [17]: 2710 ng·h/mL | half-life [18]: 134 min | pIC50 (ATR/ATRIP): 7.82 | Cmax [19]: 674 ng/mL

SMILES: COc1cc(F)cc(OCCCN)c1-c1cc(Nc2cnc(C#N)cn2)n[nH]1
TGI (HT-29): 51% | pIC50 [4]: > 9.00 | AUC(0-t) [5]: 4640 ng·h/mL

SMILES: C=CCn1c(=O)c2cnc(Nc3ccc(N4C[C@H]5CN(CC6CC6)C[C@H]5C4)cc3)nc2n1-c1ccc(C(C)(C)O)cn1
Tmax [22]: 55.2 min | bioavailability [23]: 63.7% | Cmax [24]: 430 nM | Cmax [25]: 266 nM | pIC50 (Wee1-like protein kinase [26]): 8.51 | AUC(0-t) [27]: 326 ng·h/mL | AUC(0-t) [28]: 153 ng·h/mL | Tmax [29]: 1.8 min | half-life [30]: 43.8 min | half-life [31]: 57 min

SMILES: Cc1cc2ncnn2cc1Nc1ncc2c(n1)n(N1CC3CCC(C1)O3)c(=O)n2C
half-life [33]: 231 min | half-life [34]: 76.8 min | Cmax [35]: 2170 nM | inhibition in vivo at 90 mg/kg (NCI-H1703): 79.4% | bioavailability [36]: 44.5% | AUC(0-t) [37]: 1.66 µM·h | Tmax [38]: 15 min | AUC(0-t) [39]: 3.49 µM·h

SMILES: CN1CC2CN(c3ccc(Nc4ncc5c(=O)n6n(c5n4)-c4cccc(n4)C(C)(O)CCC/C=C\C6)cc3)CC2C1 (configuration not stated)
pIC50 (Wee1-like protein kinase [12]): 7.24

The next lines start with results.

Cmax [1]: 117 nM | AUC(0-t) [2]: 4580 ng·h/mL
SMILES: CN1CCN(C2CCN(c3ccc(Nc4ncc5c(F)c(C6CC6)n(-c6cccc(C(C)(C)O)n6)c5n4)cc3F)CC2)CC1

bioavailability [9]: 62.4% | AUC(0-t) [10]: 6.04 µM·h | half-life [11]: 101 min | pIC50 (Wee1-like protein kinase [12]): 7.54
SMILES: CN1CCN(c2ccc(Nc3ncc4c(=O)n5n(c4n3)-c3cccc(n3)[C@@](C)(O)CCC/C=C\C5)cc2)CC1
inhibition in vivo at 40 mg/kg (LoVo [8]): 84.7%

pIC50 [20]: 8.45 | pEC50 [21]: 7.00
SMILES: C=CCn1c(=O)c2cnc(Nc3ccc(N4CCN(CCCNc5cccc6c5C(=O)N(C5CCC(=O)NC5=O)C6=O)CC4)cc3)nc2n1-c1cccc(C(C)(C)O)n1 (configuration not stated)

Cmax [1]: 163 nM | AUC(0-t) [2]: 4070 ng·h/mL | pIC50 (Wee1-like protein kinase [32]): 8.99
SMILES: CN1CCC2(CC1)CCN(c1ccc(Nc3ncc4cc(C5CC5)n(-c5cccc(C(C)(C)O)n5)c4n3)cc1)CC2
